In one data set the target is T1, OATP1A2 (Homo sapiens, UniProt P46721).
T1 construct: expressed in transfected cells; host or cells: A431
T1 sequence (P46721 1-670): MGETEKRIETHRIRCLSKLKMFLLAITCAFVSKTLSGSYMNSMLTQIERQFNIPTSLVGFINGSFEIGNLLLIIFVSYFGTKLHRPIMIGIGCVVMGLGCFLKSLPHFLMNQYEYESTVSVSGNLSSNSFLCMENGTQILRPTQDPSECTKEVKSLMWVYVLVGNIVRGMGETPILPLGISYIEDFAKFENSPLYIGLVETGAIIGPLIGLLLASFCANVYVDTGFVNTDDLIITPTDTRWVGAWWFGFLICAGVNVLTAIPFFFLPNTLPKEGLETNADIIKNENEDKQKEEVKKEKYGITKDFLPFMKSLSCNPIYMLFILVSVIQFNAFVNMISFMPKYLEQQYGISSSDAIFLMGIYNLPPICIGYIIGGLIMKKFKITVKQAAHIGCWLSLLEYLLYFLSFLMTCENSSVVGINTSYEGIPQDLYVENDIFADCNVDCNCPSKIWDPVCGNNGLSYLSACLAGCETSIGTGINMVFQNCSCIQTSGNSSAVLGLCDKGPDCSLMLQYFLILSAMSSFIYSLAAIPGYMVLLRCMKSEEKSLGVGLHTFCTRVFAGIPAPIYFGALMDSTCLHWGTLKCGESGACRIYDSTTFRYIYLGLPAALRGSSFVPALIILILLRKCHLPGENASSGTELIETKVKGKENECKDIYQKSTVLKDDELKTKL
In words: OATP1A2-mediated SR101 uptake in overexpressing A431 cells. Format: cell-based. As to the method:
(§1) The human epidermoid carcinoma cell (A431) overexpressing OATP1A2, OATP1B1, OATP1B3, or OATP2B1 transporters and their mock control cells were generated previously as described. , Cell culture was maintained in DMEM supplemented with 10% fetal bovine serum, 2 mM L-glutamine, 100 units/mL penicillin, and 100 μg/mL streptomycin at 37 °C and 5% CO2.
The inhibitory effects of mycotoxins (Z14S and Z14GA) were examined using indirect fluorescence assays, where pyranine and SR101 were used as fluorescent substrates. , A431 cells overexpressing OATP1A2, OATP1B1/3, or OATP2B1 and their mock-transfected controls were seeded at a density of 8 × 10^4 cells/well onto 96-well plates and incubated for 18–22 h prior to transport measurements. The next day, plated cells were washed three times with 200 μL of PBS (phosphate-buffered saline, pH 7.4) and preincubated with 50 μL of transport buffer (pH 5.5; 125 mM NaCl, 4.8 mM KCl, 1.2 mM CaCl2, 1.2 mM KH2PO4, 12 mM MgSO4, 25 mM MES, and 5.6 mM glucose) with or without increasing concentrations of the mycotoxins tested (0.001–20 μM) for 5 min at 37 °C. The transport inhibition measurements were initiated by adding 50 μL of transport buffer containing the proper fluorescent substrate SR101 (0.5 μM, OATP1A2) or pyranine (10 μM for OATP1B1 or 20 μM for OATP1B3 and OATP2B1). After 10 min (OATP1A2), 15 min (OATP1B1 and OATP2B1), or 30 min (OATP1B3) incubation, the transport was terminated by washing the cells three times with ice-cold PBS. […] Using an Enspire plate reader (PerkinElmer, Waltham, MA), the fluorescence was measured at excitation/emission wavelengths of 460/510 nm (pyranine) or 586/605 nm (SR101).
(§2) OATP-mediated transport was obtained by subtracting the activity of the mock control cells from the activity of the OATP-expressing cells. The transport activity (%) of the OATPs was calculated by comparing the fluorescence signal obtained in the absence of the compounds tested (set to 100%).

The target in the next data set is T2, CYP3A4 (Homo sapiens, UniProt P08684).
T2 construct: purchased Merck
The data set can be described thus: in vitro. The conditions noted are these: testosterone 5 μM. The class given is biochemical. From the text: Testosterone and 6β-hydroxytestosterone were detected at 240 nm.

The next data set concerns the target T3, OATP2B1 (Homo sapiens, UniProt O94956).
T3 construct: expressed in transfected cells; host or cells: A431
T3 sequence (O94956 1-709): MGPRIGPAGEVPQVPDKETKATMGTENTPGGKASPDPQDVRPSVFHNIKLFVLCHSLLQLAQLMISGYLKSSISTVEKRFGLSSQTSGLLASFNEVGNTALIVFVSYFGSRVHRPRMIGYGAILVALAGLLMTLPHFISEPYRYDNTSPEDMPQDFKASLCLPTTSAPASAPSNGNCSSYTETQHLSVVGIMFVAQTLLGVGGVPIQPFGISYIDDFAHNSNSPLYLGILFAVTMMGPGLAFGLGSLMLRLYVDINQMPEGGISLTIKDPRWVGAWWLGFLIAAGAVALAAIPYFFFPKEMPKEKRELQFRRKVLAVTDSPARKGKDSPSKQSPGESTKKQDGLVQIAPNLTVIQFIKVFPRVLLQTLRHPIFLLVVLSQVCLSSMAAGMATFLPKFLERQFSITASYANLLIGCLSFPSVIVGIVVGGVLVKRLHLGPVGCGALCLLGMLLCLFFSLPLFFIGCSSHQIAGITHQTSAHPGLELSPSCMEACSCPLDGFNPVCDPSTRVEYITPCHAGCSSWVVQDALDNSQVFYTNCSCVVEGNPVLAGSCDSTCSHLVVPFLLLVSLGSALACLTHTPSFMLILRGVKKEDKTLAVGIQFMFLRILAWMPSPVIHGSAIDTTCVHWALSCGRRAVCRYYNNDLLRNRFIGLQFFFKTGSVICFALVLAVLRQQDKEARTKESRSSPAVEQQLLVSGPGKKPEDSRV
In words: OATP2B1-mediated pyranine uptake in overexpressing A431 cells. The class given is cell-based. As to the method:
as §1
The inhibitory effects of mycotoxins (Z14S and Z14GA) were examined using indirect fluorescence assays, where pyranine and SR101 were used as fluorescent substrates. , A431 cells overexpressing OATP1A2, OATP1B1/3, or OATP2B1 and their mock-transfected controls were seeded at a density of 8 × 10^4 cells/well onto 96-well plates and incubated for 18–22 h prior to transport measurements. The next day, plated cells were washed three times with 200 μL of PBS (phosphate-buffered saline, pH 7.4) and preincubated with 50 μL of transport buffer (pH 5.5; 125 mM NaCl, 4.8 mM KCl, 1.2 mM CaCl2, 1.2 mM KH2PO4, 12 mM MgSO4, 25 mM MES, and 5.6 mM glucose) with or without increasing concentrations of the mycotoxins tested (0.001–20 μM) for 5 min at 37 °C. The transport inhibition measurements were initiated by adding 50 μL of transport buffer containing the proper fluorescent substrate SR101 (0.5 μM, OATP1A2) or pyranine (10 μM for OATP1B1 or 20 μM for OATP1B3 and OATP2B1). After 10 min (OATP1A2), 15 min (OATP1B1 and OATP2B1), or 30 min (OATP1B3) incubation, the transport was terminated by washing the cells three times with ice-cold PBS. Regarding the individual OATP assays, we applied different incubation times to keep the substrate uptake in the linear range, , avoiding substrate depletion or saturation effects, as it is indispensable for the accurate assessment. Using an Enspire plate reader (PerkinElmer, Waltham, MA), the fluorescence was measured at excitation/emission wavelengths of 460/510 nm (pyranine) or 586/605 nm (SR101).
as §2

Where two headings read alike, the source gives them in different places.

T2 sequence (P08684 whole entry): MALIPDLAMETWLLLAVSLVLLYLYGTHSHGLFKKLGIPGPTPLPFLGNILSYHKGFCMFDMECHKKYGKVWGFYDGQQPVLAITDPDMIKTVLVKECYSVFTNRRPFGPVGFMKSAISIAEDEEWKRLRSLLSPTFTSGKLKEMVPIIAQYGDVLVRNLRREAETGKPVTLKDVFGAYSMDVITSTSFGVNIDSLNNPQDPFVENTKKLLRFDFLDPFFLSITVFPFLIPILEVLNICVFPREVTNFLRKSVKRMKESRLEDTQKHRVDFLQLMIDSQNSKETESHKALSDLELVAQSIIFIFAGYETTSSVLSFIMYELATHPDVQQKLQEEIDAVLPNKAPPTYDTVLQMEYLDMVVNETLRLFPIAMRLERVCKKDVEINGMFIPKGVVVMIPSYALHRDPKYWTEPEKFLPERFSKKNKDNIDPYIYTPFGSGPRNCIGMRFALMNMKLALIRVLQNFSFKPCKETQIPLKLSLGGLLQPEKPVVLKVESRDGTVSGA

As to `C[C@H]1CCCC(=O)CCC/C=C/c2cc(O[C@@H]3O[C@H](C(=O)O)[C@@H](O)[C@H](O)[C@H]3O)cc(O)c2C(=O)O1` [Z14GA, Zearalenone-14-glucuronide], the IC50 – broadly, the midpoint of a concentration-inhibition curve – on OATP1A2 (SR101 0.5 μM, 10 min, A431 cells, read-out: IC50 for OATP1A2) is more than 20000 nM; on OATP2B1 (pyranine 20 μM, 15 min, A431 cells, read-out: IC50 for OATP2B1), 1100 nM. The “inhibition of CYP3A4 (decrease in metabolite formation)” value on CYP3A4 (each 20 μM, 180 min) was “no effects”.

Turning to `C[C@H]1CCCC(=O)CCC/C=C/c2cc(OS(=O)(=O)O)cc(O)c2C(=O)O1` [Z14S, zearalenone-14-sulfate], the IC50 at OATP1A2 stood at 1400 nM; at OATP2B1 it was 340 nM. Also, the “decrease in OATP1A2 transport activity” value at OATP1A2 (20 μM, SR101 substrate, A431 cells) was 80–100%. Further, the inhibition (as a rule, how much of the control response was suppressed) at 180 min, 20 μM on CYP3A4 (human, pH 7.5, each 20 μM, read-out: inhibition of CYP3A4 (decrease in metabolite formation)) was approximately 45%. Besides, the “effect on OATP2B1-mediated dye uptake” value at OATP2B1 (5 μM, pyranine substrate) was “completely abolished”. At OATP2B1 (20 μM, pyranine substrate, A431 cells), the “decrease in OATP2B1 transport activity” value is on record as 80–100%. Moreover, on OATP2B1 (ratio of IC50 values vs ZEN), the “stronger inhibition on OATP2B1 compared to ZEN” value was “approximately 7 fold”.

Source of the values: PMC12311865, “In Vitro Evaluation of the Potential Interactions of Zearalenone-14-sulfate and Zearalenone-14-glucuronide with Human Cytochrome P450 Enzymes, Organic Anion Transporting Polypeptides, and ATP-Binding Cassette Multidrug Transporters” (ACS Omega, 2025).
